For this test, the system named is ASD phenotype 1 lymphoblastoid cell lines. Briefly: Biolog Phenotype Mammalian MicroArrays (PM-M): NADH production, colorimetric redox dye. It counts as cell-based, human. The settings on record: cells exposed to the substance; AUC and endpoint absorbance. As to the method: From all subjects, blood samples were collected and lymphoblastoid cell lines generated. Briefly, tubes containing anticoagulant citrate dextrose (ACD) were used to collect blood samples via venipuncture, in order to ensure that the blood cells remained metabolically active. The tubes were kept at room temperature and processed within 24 hours.
Cell lines were obtained by immortalization of lymphocytes from blood samples using Epstein-Barr virus.
Energy production of cells was measured using commercially available Phenotype Mammalian MicroArrays (PM-Ms, Biolog, Hayward, Calif., USA).
The compound in each well was designed to be used by the cells, either as the sole energy source or as the metabolic effector influencing the utilization of an energy source (α-D-glucose) added in the cell suspension. […] Before plating, cell viability and number were assessed utilizing a BioRad cell counter and a trypan blue dye. The concentration of live cells required for plating was 4×10^5 cells/mL, corresponding to 20,000 cells per well in a volume of 50 μL. […] Cells were incubated for 48 h at 37° C. in 5% CO2, using the modified Biolog IF-M1 medium.
The Biolog IF-M1 medium was modified for plates PM-M1 to M4 by adding the following to 100 mL of Biolog IF-M1: 1.1 mL of 100× penicillin/streptomycin solution, 0.16 mL of 200 mM glutamine (final concentration 0.3 mM), and 5.3 mL of Fetal Bovine Serum (FBS, final concentration 5%). For plates PM-M5 to M8, 5.5 mM α-D-glucose will be added in place of FBS.
During the 48-hour incubation, the only energy source the cells had was the chemical in the well. After this first incubation, Biolog Redox Dye Mix MB was added (10 μL/well) and the plates were incubated under the same conditions for an additional 24 hours. As the cells metabolized the energy source, tetrazolium dye in the media was reduced, producing a purple color according to the amount of NADH generated.
For the last 24 hours of the experiment, the plates were incubated in the Omnilog system, which collects optical density readings every 15 minutes, generating 96 data-points for each well. The system also elaborated the kinetic curve for the metabolic reaction in each well and extrapolated parameters such as slope, highest point, endpoint, area under the curve (AUC), and lag.
At the end of the 24-hour incubation, the plates were analyzed utilizing a microplate reader with readings at 590 and 750 nm. The first value (A590) indicated the highest absorbance peak of the redox dye and the second value (A750) gave a measure of the background noise. The relative absorbance (A590-750) was calculated per well.

We go through 6 substances from patent US11040117B2, “Treatment of a subtype of ASD” (Stalicla S.A., priority 2017, dated 2021).

Regarding “PDGF-AB: platelet-derived growth factor AB”, the “production of NADH in ASD phenotype 1 cells compared to TDs and non-phenotype 1 cells” value is “no significant differences”. Then “hGH(Somatotropin): growth factor that selectively targets the PI3K-Akt-mTOR by binding the receptor tyrosine kinase”, with “significantly reduced production of NADH”; and “IGF-I: insulin-like growth factor 1; targets less specifically the PI3K-AKT-mTOR pathway in LCLs”, with “no significant differences”; and “FGF-1(aFGF): growth factor that selectively targets the PI3K-Akt-mTOR by binding the receptor tyrosine kinase”, with “significantly reduced production of NADH”. With IL-1beta: Th1 cytokine the entry was “significantly lower levels of NADH”. With IL-6: Th1 cytokine the entry was “significantly lower levels of NADH”.
